Laboratory results: patent US7763615B2, “Ecteinascidin analogs for use as antitumour agents” (priority 2001, dated 2010)
Converted amounts (≈) assume the structure as drawn.

Key:
HT29 = test: cells; assay type: cell-based; settings: Homo sapiens, HT-29, 48 h; for GI50 / IC (TGI): HT29, 48 hours exposure, SRB; for CC50: read-out: LC50, HT29, 48 hours exposure, SRB
Method in brief: (§1)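 Continuous 48 h drug exposure of attached human cancer cells (5×10^3/well, RPMI 1640, 10% FBS), doses 10 to 10^−8 μg/ml. Endpoint is SRB staining after TCA fixation, read at 490 nm. GI, TGI and LC calculated from triplicate means.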

A549 = test: cells; assay type: cell-based; settings: Homo sapiens, A549, 48 h; for GI50 / IC (TGI): A549, 48 hours exposure, SRB; for GI50: read-out: GI50; for IC (TGI): read-out: TGI; for CC50: read-out: LC50, A549, 48 hours exposure, SRB
Method in brief: as §1

A498 = test: cells; assay type: cell-based; settings: Homo sapiens
Method in brief: as §1

SW-620 = test: cells; assay type: cell-based; settings: Homo sapiens
Method in brief: as §1

MEL-28 = test: cells; assay type: cell-based; settings: Homo sapiens, SK-MEL-28, 48 h; for GI50 / IC (TGI): MEL-28, 48 hours exposure, SRB; for CC50: read-out: LC50, MEL-28, 48 hours exposure, SRB
Method in brief: as §1

MCF = test: cells; assay type: cell-based; settings: Homo sapiens
Method in brief: as §1

MB231 = test: cells; assay type: cell-based; settings: Homo sapiens
Method in brief: as §1

DU145 = test: cells; assay type: cell-based; settings: Homo sapiens, DU-145, 48 h; for GI50 / IC (TGI): DU145, 48 hours exposure, SRB; for CC50: read-out: LC50, DU145, 48 hours exposure, SRB
Method in brief: as §1

[1] = system: L8, normal rat skeletal muscle cells; settings: 24 h
[2] = system: FDC-P1, normal mouse myelogeous stem cells; settings: 24 h
Procedure: In order to assess the cytotoxicity of the drugs to normal cells, we used 96 well plates plated at a density of 5000 cells per well (except for the FDC-P1 which were plated at 12,000 cells per well) with normal cell lines (ATCC, Table 1) maintained as per the directions of the ATCC: AML-12, normal mouse liver cells; NRK-52E, normal rat kidney cells; L8, normal rat skeletal muscle cells; FDC-P1, normal mouse myelogeous stem cells; and H9c2 (2-1), normal rat cardiac muscle cells. The cells in each plate were permitted to settle overnight before adding the test drug.
To each well (100 μl medium) 10 μl of drug in media was added at varying concentrations (1×10-10-0.01 mg/ml final concentration) and further incubated overnight at 37° C. with 5% CO2. After 24 h the following assays were performed. All experiments were repeated at least 3 times and were assayed in duplicate.
MTS assay (CellTiter 96 aqueous) was performed according to the manufacturer's (Promega) directions (for all cell types). Cell viability (mitochondrial activity) is determined via enzymatic conversion of the formazan substrate.

[3] = system: H9c2 (2-1), normal rat cardiac muscle cells; settings: 24 h
[4] = s9, 60 min, 1 μM
Procedure: The metabolic stability was determined used human liver S9 homogenate that including both microsomal and cytosolic enzyme activities. The test compound was diluted in methanol (0.625%) and acetonitrile (0.625%) at the concentration 1 μM and incubated in the human liver pool (protein=1 mg/mL) during 60 min at 37° C. Peak areas corresponding to all analytes (metabolic products) were determined by HPLC-MS/MS. Areas were recorded and ratios of peak areas of analytes to that of internal standard for each analyte were determined. The ratio of precursor compound remaining after 60 minutes and the amount remaining at time zero, expressed as percent, are reported as metabolic stability. Higher values mean higher metabolic stability.

CYP3A4 = CYP3A4 (Homo sapiens, UniProt P08684); test: in vitro; settings: CYP3A4 (% inhibition)
Procedure: For CYP3A4 inhibition assay, the compound were tested at 10 μM in duplicate with a 0.25% final concentration of both methanol and acetonitrile in presence of the fluorescent substrate BFC (50 μM). The conversion of the BFC (7-benzyloxy-4-trifluoromethylcoumarin) in HFC (7-hydroxy-4-trifluoromethylcoumarin) was determined spectro-fluormetry after incubation with the enzyme during 30 min at 37° C.
For both assays, the fluorescent intensity measured at t=0 is subtracted from that measured after the appropriate incubation time. The ratio of signal-to-noise is calculated by comparing the fluorescence in incubations containing the test compound to the control samples containing the same solvent vehicle. The percent of control activity is calculated and reported as percent inhibition.

[5] = system: NRK-52E, normal rat kidney cells; settings: 24 h
physchem [6] = settings: pH 7.4, aqueous buffer, Solubility Dulbecco's PBS pH 7.4
[7] = system: AML-12, normal mouse liver cells; settings: 24 h
physchem [8] = settings: pH 7.4, log D n-Octanol-Dulbecco's PBS pH 7.4
LOVO-DOX = test: cells; assay type: cell-based; settings: Homo sapiens, 48 h
Method in brief: as §1

IGROV-ET = test: cells; assay type: cell-based; settings: Homo sapiens, 48 h
Method in brief: as §1

LNCAP = test: cells; assay type: cell-based; settings: Homo sapiens, LNCaP, 48 h
Method in brief: as §1

K562 = test: cells; assay type: cell-based; settings: Homo sapiens, K562, 48 h
Method in brief: as §1

PANC-1 = test: cells; assay type: cell-based; settings: Homo sapiens, PANC-1, 48 h
Method in brief: as §1

LOVO = test: cells; assay type: cell-based; settings: Homo sapiens, LoVo, 48 h
Method in brief: as §1

SK-BR3 = test: cells; assay type: cell-based; settings: Homo sapiens, SK-BR-3, 48 h
Method in brief: as §1

IGROV = test: cells; assay type: cell-based; settings: Homo sapiens, 48 h
Method in brief: as §1

SK-OV3 = test: Inhibition of cells growth by colorimetric assay (SRB), SK-OV3; assay type: cell-based
From the text: The finality of these assays is to interrupt the growth of a “in vitro” tumor cell culture by means of a continued exhibition of the cells to the sample to be testing.
A colorimetric type of assay, using sulphorhodamine B (SRB) reaction has been adapted for a quantitative measurement of cell growth and viability [following the technique described by Philip Skehan, et al. (1990), New colorimetric cytotoxicity assay for anticancer drug screening, J. Natl. Cancer Inst., 82:1107-1112]
This form of the assay employs 96 well cell culture microplates of 9 mm diameter (Faircloth, 1988; Mosmann, 1983). Most of the cell lines are obtained from American Type Culture Collection (ATCC) derived from different human cancer types.
Cells are maintained in RPMI 1640 10% FBS, supplemented with 0.1 g/l penicillin and 0.1 g/l streptomycin sulphate and then incubated at 37° C., 5% CO2 and 98% humidity. For the experiments, cells were harvested from subconfluent cultures using trypsin and resuspended in fresh medium before plating.
Cells are seeded in 96 well microtiter plates, at 5×10^3 cells per well in aliquots of 195 μl medium, and they are allowed to attach to the plate surface by growing in drug free medium for 18 hours. Afterward, samples are added in aliquots of 5 μl in a ranging from 10 to 10^−8 μg/ml, dissolved in DMSO/EtOH/PBS (0.5:0.5:99). After 48 hours exposure, the antitumor effect are measured by the SRB methodology: cells are fixed by adding 50 μl of cold 50% (wt/vol) trichloroacetic acid (TCA) and incubating for 60 minutes at 4° C. Plates are washed with deionized water and dried. One hundred μl of SRB solution (0.4% wt/vol in 1% acetic acid) is added to each microtiter well and incubated for 10 minutes at room temperature. Unbound SRB is removed by washing with 1% acetic acid. Plates are air dried and bound stain is solubilized with Tris buffer. Optical densities are read on a automated spectrophotometric plate reader at a single wavelength of 490 nm.
The values for mean+/− SD of data from triplicate wells are calculated. Some parameters for cellular responses can be calculated: GI=growth inhibition, TGI=total growth inhibition (cytostatic effect) and LC=cell killing (cytotoxic effect).

H-MEC-1 = test: Inhibition of cells growth by colorimetric assay (SRB), H-MEC-1; assay type: cell-based; settings: Homo sapiens, HMEC-1, 48 h
Method in brief: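 SRB colorimetric growth assay: 5×10^3 cells/well, 18 h attachment, 48 h continuous compound exposure at 10–10^−8 μg/ml in DMSO/EtOH/PBS. TCA fixation, SRB stain, OD 490 nm; triplicate wells, GI, TGI and LC derived.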

(HEPG2) = settings: human, 24 h, 30 μM
Procedure: The toxic potential of compounds was investigated in vitro using primary human hepatocytes (HEPG2). The compounds were tested at 30 μM in duplicate with a final DMSO concentration of 1%. After incubation during 24 h at 37° C. the cell viability was determined by the conversion of oxided alarmarBlue (resazurin) to reduced alarmarBlue (resorufin). Chlorpromazine was used as reference compound. Results are expressed as a percent of inhibition of control values.

[9] = LOVO-DOX, 48 hours exposure, SRB
[10] = IGROV-ET, 48 hours exposure, SRB
[11] = H-MEC-1, 48 hours exposure, SRB

Chain of CYP3A4 (P08684 whole entry): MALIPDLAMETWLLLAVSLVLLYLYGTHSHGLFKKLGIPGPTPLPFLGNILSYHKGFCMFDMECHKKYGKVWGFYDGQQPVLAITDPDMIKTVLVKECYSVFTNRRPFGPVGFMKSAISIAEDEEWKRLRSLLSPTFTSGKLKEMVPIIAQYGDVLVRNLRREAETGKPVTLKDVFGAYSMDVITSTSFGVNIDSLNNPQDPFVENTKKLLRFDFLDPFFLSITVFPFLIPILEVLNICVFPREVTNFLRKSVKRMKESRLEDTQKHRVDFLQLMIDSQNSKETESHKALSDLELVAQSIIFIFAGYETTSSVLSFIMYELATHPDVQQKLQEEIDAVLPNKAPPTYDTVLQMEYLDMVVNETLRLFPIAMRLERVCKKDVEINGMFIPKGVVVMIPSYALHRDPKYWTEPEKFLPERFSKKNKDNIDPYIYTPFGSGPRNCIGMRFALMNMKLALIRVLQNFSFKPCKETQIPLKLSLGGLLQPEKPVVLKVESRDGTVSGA

COc1c(C)cc2c(c1O)[C@@H]1C3[C@@H]4SC[C@]5(NCCc6c5[nH]c5ccc(C)cc65)C(=O)COC[C@@H](c5c6c(c(C)c(OC(C)=O)c54)OCO6)N3[C@@H](O)[C@H](C2)N1C (stereo partly shown) [Compound 30]
GI50 (HT29): 0.104 nM
IC (TGI) (HT29): 0.39 nM
CC50 (HT29): 1.04 nM
GI50 (A549): 0.039 nM
IC (TGI) (A549): 0.26 nM
CC50 (A549): 1.04 nM
CC50 (A498; A498, 48 h, read-out: LC50): 2.6 nM
GI50 (A498; A498, 48 hours exposure, SRB): 0.13 nM
IC (TGI) (A498; A498, 48 hours exposure, SRB): 0.52 nM
CC50 (SW-620; SW-620, 48 h, read-out: LC50): 1.3 nM
IC (TGI) (SW-620; SW-620, 48 hours exposure, SRB): 0.39 nM
GI50 (SW-620; SW-620, 48 hours exposure, SRB, read-out: GI50): 0.026 nM
GI50 (MEL-28): 0.026 nM
IC (TGI) (MEL-28): 0.13 nM
CC50 (MEL-28): 0.65 nM
CC50 (MCF; 48 h, read-out: LC50): 2.6 nM
GI50 (MCF; MCF, 48 hours exposure, SRB): 0.26 nM
IC (TGI) (MCF; MCF, 48 hours exposure, SRB, read-out: TGI): 0.39 nM
CC50 (MB231; 48 h, read-out: LC50): 3.9 nM
GI50 (MB231; MB231, 48 hours exposure, SRB): 0.0026 nM
IC (TGI) (MB231; MB231, 48 hours exposure, SRB, read-out: TGI): 0.13 nM
GI50 (DU145): 0.013 nM
IC (TGI) (DU145): 0.039 nM
CC50 (DU145): 0.13 nM
Skeletal [1]: 2.51E−08
Myelo [2]: 7.58E−09
Heart [3]: 5.06E−07
Human Liver S9 Metabolic Stability (% remaining) [4]: 6 % remaining
inhibition at 30 min, 10 µM (CYP3A4): 25%
Kidney [5]: 4.19E−09
solubility (physchem [6]): 2.24 µM (≈ 1.75 µg/mL)
Liver [7]: 2.72E−07
logD at 60 min (physchem [8]): > 4.9

COc1c(C)cc2c(c1O)[C@@H]1C3[C@@H]4SC[C@]5(NCCc6c5[nH]c5ccc(F)cc65)C(=O)COC[C@@H](c5c6c(c(C)c(OC(C)=O)c54)OCO6)N3[C@@H](O)[C@H](C2)N1C (stereo partly shown) [Compound 35]
GI50 (HT29): 4.19 nM
IC (TGI) (HT29): 13.2 nM
CC50 (HT29): 12900 nM
GI50 (LOVO-DOX; [9]): 26.8 nM
IC (TGI) (LOVO-DOX; [9]): 124 nM
CC50 (LOVO-DOX; read-out: LC50, LOVO-DOX, 48 hours exposure, SRB): 12900 nM
GI50 (IGROV-ET; [10]): 5.53 nM
IC (TGI) (IGROV-ET; [10]): 23.5 nM
CC50 (IGROV-ET; read-out: LC50, IGROV-ET, 48 hours exposure, SRB): 12900 nM
GI50 (A549): 3.03 nM
IC (TGI) (A549): 7.65 nM
CC50 (A549): 4090 nM
GI50 (LNCAP; 48 hours exposure, SRB): 0.816 nM
IC (TGI) (LNCAP; 48 hours exposure, SRB): 2.5 nM
CC50 (LNCAP; read-out: LC50, LNCAP, 48 hours exposure, SRB): 7.48 nM
GI50 (K562; K562, 48 hours exposure, SRB): 1.14 nM
IC (TGI) (K562; K562, 48 hours exposure, SRB): 2.67 nM
CC50 (K562; read-out: LC50, K562, 48 hours exposure, SRB): 10.2 nM
GI50 (PANC-1; PANC-1, 48 hours exposure, SRB): 4.52 nM
IC (TGI) (PANC-1; PANC-1, 48 hours exposure, SRB): 42.1 nM
CC50 (PANC-1; read-out: LC50, PANC-1, 48 hours exposure, SRB): 12900 nM
GI50 (MEL-28): 2.78 nM
IC (TGI) (MEL-28): 7.16 nM
CC50 (MEL-28): 47 nM
GI50 (LOVO; 48 hours exposure, SRB): 2.26 nM
IC (TGI) (LOVO; 48 hours exposure, SRB): 5.68 nM
CC50 (LOVO; read-out: LC50, LOVO, 48 hours exposure, SRB): 12.9 nM
GI50 (DU145): 3.83 nM
IC (TGI) (DU145): 12 nM
CC50 (DU145): 12900 nM
GI50 (SK-BR3; SK-BR3, 48 hours exposure, SRB): 2.21 nM
IC (TGI) (SK-BR3; SK-BR3, 48 hours exposure, SRB): 6.55 nM
CC50 (SK-BR3; read-out: LC50, SK-BR3, 48 hours exposure, SRB): 1090 nM
GI50 (IGROV; 48 hours exposure, SRB): 3.45 nM
IC (TGI) (IGROV; 48 hours exposure, SRB): 7.72 nM
CC50 (IGROV; read-out: LC50, IGROV, 48 hours exposure, SRB): 3380 nM
GI50 (SK-OV3; Homo sapiens, SK-OV-3, 48 h, SK-OV3, 48 hours exposure, SRB): 4.37 nM
CC50 (SK-OV3; Homo sapiens, SK-OV-3, 48 h, read-out: LC50, SK-OV3, 48 hours exposure, SRB): 12900 nM
TGI (SK-OV3; SK-OV3, 48 hours exposure, SRB): 1.46E−08 Molar
Skeletal [1]: 3.07E−08
Myelo [2]: 4.08E−08
Heart [3]: 1.93E−08
Human Liver S9 Metabolic Stability (% remaining) [4]: 4 % remaining
inhibition at 30 min, 10 µM (CYP3A4): 24%
Kidney [5]: 3.42E−08
GI50 (H-MEC-1; [11]): 2.6 nM
IC (TGI) (H-MEC-1; [11]): 30.4 nM
CC50 (H-MEC-1; read-out: LC50, H-MEC-1, 48 hours exposure, SRB): 12900 nM
solubility (physchem [6]): < 1 µM
Cell Viability (% inhibition) ((HEPG2)): 23 % inhibition
Liver [7]: 4.88E−08
logD at 60 min (physchem [8]): > 5
